Experimental data published in US10913757B2, “Hydroxycinnamic derivatives, methods and uses thereof” (UNIVERSIDADE DO PORTO, priority 2016, dated 2021).
Entries after “also recorded” stand apart in the source; their conditions may differ.

Columns and labels:
[1] = DPPH radical scavenging activity (TAC assay); assay type: biochemical; conditions: ethanol, absorbance 515 nm
Description: In an embodiment, the AntiOxCINs antioxidant ranking activity hierarchy was established by in vitro non-cell methods. The selected total antioxidant capacity (TAC) assays (DPPH, ABTS and GO) involved the spectrophotometric measurement of the radical absorbance decrease as a result of an in situ radical deactivation by an antioxidant. Compounds with higher antioxidant activity display lower IC50 values. […] This decrease was attenuated/ameliorated by the increment of the spacer length and/or the introduction of additional hydroxyl group in the aromatic ring.
The radical scavenging activity of AntiOxCINs was evaluated by means of total antioxidant capacity assays based on DPPH., ABTS.^+ and GO. radicals. All these methods involved the spectrophotometric measurement of the absorbance decrease resulting from radical (DPPH., ABTS.^+ or GO.) deactivation with an antioxidant. The results were expressed in IC50, which is defined as the minimum antioxidant concentration necessary to reduce the amount of radical by 50%. Antioxidant assays were performed in a multiplate reader (Powerwave XS Microplate Reader) of Bio-Tech instruments.
In an embodiment, the DPPH. radical scavenging activity was performed as follows: solutions of the test compounds with increasing concentrations (range between 0 μM and 500 μM) were prepared in ethanol. A DPPH′ ethanolic solution (6.85 mM) was also prepared and then diluted to reach the absorbance of 0.72±0.02 at 515 nm. Each compound solution (20 μL) was added to 180 μL of DPPH′ solution in triplicate, and the absorbance at 515 nm was recorded minutely over 45 minutes. […] Dose-response curves were established for the determination of IC50 values. Data are means±SEM of three independent experiments.

[2] = system: mitochondrial permeability transition pore (mPTP) of RLM; experiment: Mitochondrial permeability transition pore (mPTP) opening, mitochondrial swelling; assay type: biochemical, rat; conditions: 2.5, 5 and 10 μM, pre-incubated 5 min before calcium, FIG. 7A-C
Method: In an embodiment, the AntiOxCINs effects on mitochondrial permeability transition pore (mPTP) opening were evaluated. In general, less lipophilic AntiOxCINs had no effect on mPTP opening for all tested concentrations (FIG. 7A-C).
(§1) In an embodiment, the evaluation of AntiOxCINs functional mitochondrial toxicity profile was performed in rat liver mitochondria (RLM). RLM were prepared by tissue homogenization followed by differential centrifugations in ice-cold buffer containing 250 mM sucrose, 10 mM HEPES (pH 7.4), 1 mM EGTA, and 0.1% fat-free bovine serum albumin. After obtaining a crude mitochondrial preparation, pellets were washed twice and resuspended in washing buffer (250 mM sucrose and 10 mM HEPES, pH 7.4). The protein concentration was determined by the biuret assay using BSA as a standard.
In an embodiment, the effect of AntiOxCINs on mitochondrial permeability transition pore opening were measured as follows: mitochondrial swelling was estimated by measuring the alterations of light scattered from a mitochondrial suspension, as monitored spectrophotometrically at 540 nm. Increasing concentrations of AntiOxCINs (2.5-10 μM) were added to the reaction medium (200 mM sucrose, 1 mM KH2PO4, 10 mM Tris (pH 7.4), 5 mM succinate and 10 μM EGTA supplemented with 1.5 μM rotenone), in the presence of RLM (1 mg), and allowed to incubate for a 5 min period before the assay. The experiments were initiated by the addition of a suitable concentration of Ca^2+ (15-50 μM), titrated every day. […] The reaction was stirred continuously and the temperature maintained at 37° C. Data are means±SEM of three independent experiments and are expressed as Aabsorbance at 540 nm.

[3] = Iron (II) chelating properties, ferrozine assay; assay type: biochemical; conditions: 100 μM, EDTA=100%
Method: In an embodiment, AntiOxCINs iron (II) chelating properties were evaluated by the ferrozine assay using ethylenediaminetetracetic acid (EDTA) as reference.
In an embodiment, AntiOxCINs iron chelating properties were evaluated by the spectrophotometric ferrozine method performed in a multiplate reader (Powerwave XS Microplate Reader) of Bio-Tech instruments.
In an embodiment, the AntiOxCINs iron chelating properties were evaluated as follows: in each well, a solution of the test compound (100 μM) and ammonium iron (II) sulphate in ammonium acetate (20 μM) were added, incubated for 10 min and the absorbance was read at 562 nm. Then, a freshly prepared solution of ferrozine (5 mM) was added to each well (96 μM final concentration). After a new incubation at 37° C. for 10 min period, the absorbance of [Fe(ferrozine)3]^2+ complex was measured at 562 nm. Blank wells were run using DMSO instead of the test compounds. EDTA was used as a reference. All compounds were tested at a final concentration of 100 μM. The absorbance of the first reading was subtracted to the final values to abolish any absorbance due to the test compounds. Data are means±SEM of three independent experiments and are expressed as % of Fe(II) chelation (EDTA=100%).

[4] = system: rat liver mitochondria (RLM); experiment: AntiOxCINs uptake by energised rat liver mitochondria (TPP-selective electrode); assay type: in vitro ADME; conditions: FIG. 3
Method: In an embodiment, and as an example, mitochondrial AntiOxCINs uptake was assessed in isolated rat liver mitochondria (RLM) in response to the membrane potential. AntiOxCINs can accumulate inside mitochondria driven by the ΔΨ (FIG. 3A). Different AntiOxCINs accumulation outlines within the mitochondrial matrix have been noticed. […] However, the linear increase of AntiOxCINs lipophilicity was not directly translated into an increase in the ratio of mitochondrial matrix accumulation (FIG. 3B). The following ranking order was attained: AntiOxCIN1<AntiOxCIN2<[…]<AntiOxCIN3 (catechol series); AntiOxCIN4<AntiOxCIN7<AntiOxCIN6 (pyrogallol series) (FIG. 3C).
as §1
In an embodiment, the AntiOxCINs mitochondria uptake by energized RLM was evaluated as follows: RLM (0.5 mg protein/mL) were incubated with AntiOxCINs at 37° C. under constant stirring in 1 mL of KCl medium (120 mM KCl, 10 mM HEPES, pH 7.2 and 1 mM EGTA). Five sequential 1 μM additions of each AntiOxCINs were performed to calibrate the electrode response in the presence of rotenone (1.5 μM). Then, succinate (10 mM) was added to generate AN. Valinomicin (0.2 μg/mL) was added at the end of the assay to dissipate AN. […] The mitochondrial accumulation ratio was calculated by the disappearance of AntiOxCINs from extra- to intramitochondrial medium assuming an intramitochondrial volume of 0.5 μL/mg protein and a binding correction for the mitochondrial uptake of TPP compounds.

Compound | IC50 [1] [µM] | effect on calcium-dependent mPTP opening [2] | iron (II) chelation ([3]; FIG. 2) | mitochondrial accumulation ratio [4] | iron (II) chelation ([3]; FIG. 2, methanesulfonate)
CS(=O)(=O)[O-].O=C(/C=C/c1ccc(O)c(O)c1)NCCCCCCCC[P+](c1ccccc1)(c1ccccc1)c1ccccc1 [AntiOxCIN3, (E)-(8-(3-(3,4-dihydroxyphenyl)acrylamido)octyl)triphenylphosphoniummethanesulfonate] | 28 | inhibition of calcium-dependent mPTP opening |  |  | 
O=C(O)/C=C/c1ccc(O)c(O)c1 [Caffeic acid, caffeic acid, reference compound] | 18.1 |  | able to chelate ferrous iron alike EDTA |  | 
CS(=O)(=O)[O-].O=C(/C=C/c1cc(O)c(O)c(O)c1)NCCCCCCCC[P+](c1ccccc1)(c1ccccc1)c1ccccc1 [AntiOxCIN5, (E)-(8-(3-(3,4,5-trihydroxyphenyl)acrylamido)octyl)triphenylphosphonium methanesulfonate] | 14.7 | inhibition of calcium-dependent mPTP opening |  |  | 
CS(=O)(=O)[O-].O=C(/C=C/c1ccc(O)c(O)c1)NCCCCCC[P+](c1ccccc1)(c1ccccc1)c1ccccc1 [AntiOxCIN2, (E)-(6-(3-(3,4-dihydroxyphenyl)prop-2-enamido)hexyl)triphenylphosphonium methanesulfonate] | 29.5 |  | higher iron chelation activity than caffeic acid itself | approximately the same accumulation ratio | 
CS(=O)(=O)[O-].O=C(/C=C/c1ccc(O)c(O)c1)NCCCCCCCCCC[P+](c1ccccc1)(c1ccccc1)c1ccccc1 [AntiOxCIN6, (E)-(10-(3-(3,4-dihydroxyphenyl)acrylamido)decyl)triphenylphosphonium methanesulfonate] | 25.9 | inhibition of calcium-dependent mPTP opening |  |  | 
CS(=O)(=O)[O-].O=C(/C=C/c1cc(O)c(O)c(O)c1)NCCCCCCCCCC[P+](c1ccccc1)(c1ccccc1)c1ccccc1 [AntiOxCIN7, (E)-(10-(3-(3,4,5-trihydroxyphenyl)acrylamido)decyl)triphenylphosphonium methanesulfonate] | 13.7 | inhibition of calcium-dependent mPTP opening |  | lower accumulation ratio | 
CS(=O)(=O)[O-].O=C(/C=C/c1cc(O)c(O)c(O)c1)NCCCCCC[P+](c1ccccc1)(c1ccccc1)c1ccccc1 [AntiOxCIN4, (E)-(6-(3-(3,4,5-trihydroxyphenyl)prop-2-enamido)hexyl)triphenylphosphonium methanesulfonate] | 19 |  |  | approximately the same accumulation ratio | higher iron chelation activity than caffeic acid itself; also recorded: remarkable iron-chelation property
